Assay results reported in ChEMBL document CHEMBL1201862, “PubChem BioAssay data set” (2004).
The source made the active and inactive calls. For most assays here, no stated cut-off is given here; in the data, actives have a measured EC50 and inactives only a lower limit.

What was measured:
[1] = molecular target: T1, Corticotropin-releasing factor receptor 2/Corticotropin-releasing factor-binding protein (Homo sapiens, UniProt P24387+Q13324); experiment: Dose Response confirmation of uHTS hits for small molecule antagonists of the CRF-binding protein and CRF-R2 receptor complex.; format: functional; conditions: read-out: IC50_Mean
T1 sequence (Q13324 whole entry): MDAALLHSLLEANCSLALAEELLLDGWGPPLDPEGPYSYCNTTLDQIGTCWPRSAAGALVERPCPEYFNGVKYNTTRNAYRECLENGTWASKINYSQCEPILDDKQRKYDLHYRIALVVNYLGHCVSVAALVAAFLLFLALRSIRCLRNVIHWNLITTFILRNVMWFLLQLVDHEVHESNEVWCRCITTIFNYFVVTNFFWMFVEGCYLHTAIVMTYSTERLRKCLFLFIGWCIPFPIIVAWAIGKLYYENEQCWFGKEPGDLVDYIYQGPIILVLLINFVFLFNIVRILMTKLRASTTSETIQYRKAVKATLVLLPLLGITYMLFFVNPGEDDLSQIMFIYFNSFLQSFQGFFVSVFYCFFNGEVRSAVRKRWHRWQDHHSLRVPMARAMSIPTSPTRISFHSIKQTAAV
T1 sequence (P24387 whole entry): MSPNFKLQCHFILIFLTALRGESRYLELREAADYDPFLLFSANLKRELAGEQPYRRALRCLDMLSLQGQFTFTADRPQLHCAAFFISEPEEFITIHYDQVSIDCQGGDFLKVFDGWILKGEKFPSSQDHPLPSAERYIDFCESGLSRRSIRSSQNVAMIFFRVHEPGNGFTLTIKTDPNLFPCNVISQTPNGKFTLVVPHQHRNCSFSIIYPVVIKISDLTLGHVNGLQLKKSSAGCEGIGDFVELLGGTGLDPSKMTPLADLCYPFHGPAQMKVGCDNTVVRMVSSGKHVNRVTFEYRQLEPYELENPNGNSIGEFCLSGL

[2] = molecular target: T1, Corticotropin-releasing factor receptor 2/Corticotropin-releasing factor-binding protein; experiment: activators of CRF receptor 2 with binding protein – uHTS hits, confirmation (AID 602473); format: functional; conditions: read-out: EC50_Mean
[3] = Luminescence Cell-Based Dose Confirmation HTS to Identify Activators of 5'UTR Stem-Loop Driven Alpha-Synuclein mRNA Translation in H4 Neuroglioblastoma Cells. [Related pubchem assays: 1829 (Project Summary), 1814 (Primary HTS)]; format: functional
[4] = Luminescence Cell-Based Dose Response HTS to Identify Activators of Luciferase Translation or Activity in H4 […] Cells. [Related pubchem assays: 1829 (Project Summary), 1814 (Primary HTS)]; format: functional
H4 = experiment: Luminescence Cell-Based Dose Response HTS to Identify Activators of 5'UTR Stem-Loop Driven Prion Protein mRNA Translation in H4 Neuroglioblastoma Cells. [Related pubchem assays: 1829 (Project Summary), 1814 (Primary HTS)]; format: functional; conditions: Homo sapiens
[5] = molecular target: T2, Replicative DNA helicase DnaB (Mycobacterium tuberculosis, UniProt P9WMR3); experiment: DnaB intein splicing inhibitors, dose response, biochemical, cell-free fluorescence (AID 449749); format: functional
T2 sequence (P9WMR3 whole entry): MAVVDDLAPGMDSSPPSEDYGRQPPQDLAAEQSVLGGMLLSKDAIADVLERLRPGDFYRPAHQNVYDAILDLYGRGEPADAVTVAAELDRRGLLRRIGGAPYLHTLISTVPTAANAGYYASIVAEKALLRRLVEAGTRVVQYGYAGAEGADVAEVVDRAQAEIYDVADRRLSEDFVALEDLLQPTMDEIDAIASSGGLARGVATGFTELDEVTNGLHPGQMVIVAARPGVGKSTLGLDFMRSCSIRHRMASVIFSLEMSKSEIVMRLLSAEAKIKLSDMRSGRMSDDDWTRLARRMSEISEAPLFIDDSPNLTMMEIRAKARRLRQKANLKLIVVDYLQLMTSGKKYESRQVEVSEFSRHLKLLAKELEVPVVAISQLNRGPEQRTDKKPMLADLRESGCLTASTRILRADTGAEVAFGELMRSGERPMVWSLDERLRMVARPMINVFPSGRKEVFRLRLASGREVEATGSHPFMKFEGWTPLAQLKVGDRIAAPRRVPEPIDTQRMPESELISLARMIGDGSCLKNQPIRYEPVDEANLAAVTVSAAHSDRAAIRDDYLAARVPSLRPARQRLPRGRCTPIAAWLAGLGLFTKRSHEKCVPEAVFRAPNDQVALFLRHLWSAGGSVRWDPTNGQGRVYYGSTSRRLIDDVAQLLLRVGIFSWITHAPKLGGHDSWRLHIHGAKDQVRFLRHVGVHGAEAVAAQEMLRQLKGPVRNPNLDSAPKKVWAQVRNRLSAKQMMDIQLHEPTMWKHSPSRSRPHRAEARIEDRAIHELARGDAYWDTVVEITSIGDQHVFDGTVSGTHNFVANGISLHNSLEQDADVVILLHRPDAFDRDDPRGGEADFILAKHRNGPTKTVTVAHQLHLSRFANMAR

Protein RecA = molecular target: T3, Protein RecA (Mycobacterium tuberculosis, UniProt P9WHJ3); experiment: Fluorescence Cell-Free Homogeneous Dose Retest to Identify Inhibitors of RecA-Intein Splicing Activity. [Related pubchem assays (depositor defined):AID2097, AID2223, AID489010, AID492950]; format: functional
T3 sequence (P9WHJ3 whole entry): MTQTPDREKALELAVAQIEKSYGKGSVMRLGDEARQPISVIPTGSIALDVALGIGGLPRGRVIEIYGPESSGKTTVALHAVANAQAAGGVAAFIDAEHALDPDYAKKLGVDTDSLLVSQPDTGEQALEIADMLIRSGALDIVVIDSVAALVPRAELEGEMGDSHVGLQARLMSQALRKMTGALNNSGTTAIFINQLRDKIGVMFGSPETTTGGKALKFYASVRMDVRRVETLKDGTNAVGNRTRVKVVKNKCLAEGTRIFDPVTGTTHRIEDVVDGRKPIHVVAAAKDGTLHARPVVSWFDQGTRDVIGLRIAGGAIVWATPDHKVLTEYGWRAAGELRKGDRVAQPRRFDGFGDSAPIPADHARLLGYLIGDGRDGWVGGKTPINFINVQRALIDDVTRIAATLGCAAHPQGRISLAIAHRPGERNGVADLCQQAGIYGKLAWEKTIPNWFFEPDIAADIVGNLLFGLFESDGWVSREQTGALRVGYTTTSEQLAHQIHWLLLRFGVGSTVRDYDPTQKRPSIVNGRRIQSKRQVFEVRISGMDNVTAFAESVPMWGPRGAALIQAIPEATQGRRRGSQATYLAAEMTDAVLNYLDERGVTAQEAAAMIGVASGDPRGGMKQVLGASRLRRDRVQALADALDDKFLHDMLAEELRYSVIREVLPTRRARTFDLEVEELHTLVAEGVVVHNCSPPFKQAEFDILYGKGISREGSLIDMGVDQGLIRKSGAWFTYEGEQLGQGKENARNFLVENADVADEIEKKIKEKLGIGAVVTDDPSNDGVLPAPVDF

[6] = Luminescence Cell-Based Dose Retest to Confirm Inhibitors of Cancer Stem Cells. [Related pubchem assays (depositor defined):AID2717, AID2721]; format: functional; conditions: Homo sapiens
INS1 = experiment: INS-1E survival protection against cytokine death – cell-based, luminescence, retest, dose response (AID 449756); format: functional; conditions: Rattus norvegicus;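 further: cell death triggered by IL-1 beta plus TNF-alpha plus IFN-gamma mixture; protective hits raise ATP signal compared with cytokine alone wells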
[7] = tested on: Streptococcus sp. 'group A'; experiment: Streptococcus pyogenes SK(-)GAS viability under kanamycin – luminescence, BacTiterGlo, confirmation, counter-screen for streptokinase expression inhibitor project, dose response (AID 1900); format: functional, organism-based
Streptococcus = experiment: GAS UMAA2166 growth inhibition – luminescence, BacTiterGlo, counter-screen for streptokinase expression inhibitor project, dose response (AID 1915); format: functional, organism-based;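 further: potency for reduction of bacterial viability or growth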

COc1cccc(C2CC(c3cccs3)=NN2C(=S)Nc2ccccc2)c1OC (stereo unspecified)
IC50 [1]: > 47.1 µM (inactive) | EC50 [2]: > 53 µM (inactive)

Cc1ccccc1NC(=O)C1Cc2ccccc2CN1C(=O)c1ccco1 (stereo unspecified)
EC50 [3]: 35.6 µM (active) | EC50 [4]: 39.3 µM (active) | EC50 (H4): 12.7 µM (active)

O=C(Nc1ccccc1N(C(=O)c1ccco1)S(=O)(=O)c1cccs1)c1ccco1
AC50 [5]: 5.6 µM (active) | EC50 (Protein RecA): 8.58 µM (active)

O=c1c2c3nc4ccccc4nc3n(/N=C/c3ccccn3)c2ncn1-c1ccccc1
EC50 [3]: > 120 µM (not active) | EC50 [4]: 13 µM (active) | EC50 (H4): > 120 µM (not active)

COc1ccc(CCc2nc(-c3cccs3)no2)cc1
EC50 [3]: 19.2 µM (active) | EC50 [4]: 6.22 µM (active) | EC50 (H4): 23.3 µM (active)

COc1ccccc1NC(=O)Nc1ccc(-n2ccc(C(F)(F)F)n2)cc1
AC50 [6]: 4.01 µM (active)

O=C(C1CCCN(S(=O)(=O)c2ccc([N+](=O)[O-])cc2)C1)N1CCCCC1 (stereo unspecified)
AC50 [6]: > 195 µM (inactive)

Cc1ccc2nsnc2c1NS(=O)(=O)c1c(C)ccc2nsnc12
AC50 [5]: 37.8 µM (active) | EC50 (Protein RecA): 24.8 µM (active)

CC1=NNC(=O)C1Cc1ccc(F)cc1 (stereo unspecified)
AC50 [5]: 14 µM (active) | EC50 (Protein RecA): 14.2 µM (active)

CC(Oc1cccc(Cl)c1)C(=O)NNC(=O)c1cccnc1 (stereo unspecified)
IC50 [1]: > 47.1 µM (inactive) | EC50 [2]: > 53 µM (inactive)

CCOC(=O)c1cnn(-c2ccc(C(F)(F)F)cn2)c1N
EC50 [3]: 21.1 µM (active) | EC50 [4]: > 120 µM (not active) | EC50 (H4): > 120 µM (not active)

COc1ccc(C(c2c(C)n[nH]c2O)c2c(C)n[nH]c2O)cc1Br
AC50 [5]: 0.32 µM (active) | EC50 (Protein RecA): 0.289 µM (active)

Cc1ccc(CN2CCN(C3CCOCC3)CC2CCO)cc1 (stereo unspecified)
IC50 [1]: > 47.1 µM (inactive) | EC50 [2]: > 53 µM (inactive)

O=C(NCc1ccccn1)C1CCN(S(=O)(=O)c2c[nH]cn2)CC1
IC50 [1]: > 47.1 µM (inactive) | EC50 [2]: > 53 µM (inactive)

Cc1cc(C)n(C(=O)c2cc3sccc3[nH]2)n1
EC50 [3]: 6.99 µM (active) | EC50 [4]: 14.6 µM (active) | EC50 (H4): 83.6 µM (inconclusive)

Cc1csc2c(N3CCN(C(=O)c4ccc(C(C)(C)C)cc4)CC3)ncnc12
AC50 (INS1): 13.2 µM (active)

CCOC(=O)c1sc(NC(=O)c2cccc(S(=O)(=O)N3CCN(C)CC3)c2)cc1C
IC50 [1]: > 47.1 µM (inactive) | EC50 [2]: > 53 µM (inactive)

Oc1ccc(/C=N/Nc2nc(N3CCCCCC3)nc(N3CCCCCC3)n2)c(O)c1
EC50 [7]: 1.13 µM (active) | EC50 (Streptococcus): 1.86 µM (active) | IC50 [1]: > 47.1 µM (inactive) | EC50 [2]: > 53 µM (inactive)

O=C(Nc1cccn2ncnc12)c1ccccc1
EC50 [3]: > 120 µM (not active) | EC50 [4]: 14.8 µM (active) | EC50 (H4): 23.5 µM (active)

CCOc1cc(/C=C2\C(=O)N(c3ccc(C(N)=O)cc3)N=C2C)ccc1OC(=O)c1cccs1
AC50 [5]: 2.35 µM (active) | EC50 (Protein RecA): 1.93 µM (active)

COc1ccc(OC)c(/C=N/c2ccccc2-c2nc3ccccc3[nH]2)c1
EC50 [3]: 13.1 µM (active) | EC50 [4]: 8.07 µM (active) | EC50 (H4): 10.8 µM (active)

Cc1cc(C(=O)CSc2cccc[n+]2[O-])c(C)n1-c1ccc(Br)cc1
EC50 [3]: < 0.1 µM (active) | EC50 [4]: 55.6 µM (active) | EC50 (H4): > 120 µM (not active)

COc1ccc(-c2ccc(C)cc2)cc1[C@H]1[C@@H]2C=CCC[C@@]2(C)C(=O)N1Cc1ccccc1
AC50 [6]: 3.36 µM (active)

Cn1nc(/C=C/c2ccccc2)ccc1=O
EC50 [3]: 10.9 µM (active) | EC50 [4]: 15.2 µM (active) | EC50 (H4): 14.1 µM (active)

CC#CCOC(=O)c1c(C)nc2sc3c(c2c1N)CCC(O)C3 (stereo unspecified)
AC50 [6]: 4.7 µM (active)

Cc1n[nH]c(O)c1C(c1ccc([N+](=O)[O-])cc1)c1c(C)n[nH]c1O
AC50 [5]: 0.704 µM (active) | EC50 (Protein RecA): 0.27 µM (active)

Clc1ccc(-c2nnc(CSc3nnc(-c4cccs4)o3)o2)cc1
IC50 [1]: > 47.1 µM (inactive) | EC50 [2]: > 53 µM (inactive)

Cc1ccc(NC(=O)CC2SCCNC2=O)cc1Cl (stereo unspecified)
EC50 [3]: 14.5 µM (active) | EC50 [4]: 30.9 µM (active) | EC50 (H4): > 120 µM (not active)

Cc1cccc(C(=O)NC(=S)N2CCN(C(=S)NC(=O)c3cccc(C)c3)CC2)c1
IC50 [1]: > 47.1 µM (inactive) | EC50 [2]: > 53 µM (inactive)

Fc1ccc(NC(S)=Nc2cc(-c3ccccc3)[nH]n2)cc1Cl
AC50 [6]: 3.05 µM (active)

COc1ccc(C(CC(=O)Nc2ccccn2)N2Cc3ccccc3C2=O)cc1 (stereo unspecified)
EC50 [3]: > 60 µM (not active) | EC50 [4]: 16.4 µM (active) | EC50 (H4): > 120 µM (not active)

Cc1ccccc1C(=O)N1CCN(c2ccc(NC(=O)c3cccnc3)cc2)CC1
AC50 (INS1): 7.89 µM (active)

CCOC(=O)C(=NCCCN1CCOCC1)NNc1cccc(C(F)(F)F)c1
AC50 [6]: 8.17 µM (active)
